# Data: patent publication US10626125B2, “1,1,1-trifluoro-3-hydroxypropan-2-yl carbamate derivatives as MAGL inhibitors” (PFIZER INC., priority 2017, dated 2020)
# Read-outs that look alike come from different tables or passages of the source.
# Tests used:
# [1] = target: T1, human recombinant Monoacylglycerol Lipase (Homo sapiens, UniProt Q99685); assay: MAGL enzymatic assay (IC50; 7-HCA substrate added at T=0 min or T=30 min); assay type: biochemical
# T1 sequence (Q99685 1-303): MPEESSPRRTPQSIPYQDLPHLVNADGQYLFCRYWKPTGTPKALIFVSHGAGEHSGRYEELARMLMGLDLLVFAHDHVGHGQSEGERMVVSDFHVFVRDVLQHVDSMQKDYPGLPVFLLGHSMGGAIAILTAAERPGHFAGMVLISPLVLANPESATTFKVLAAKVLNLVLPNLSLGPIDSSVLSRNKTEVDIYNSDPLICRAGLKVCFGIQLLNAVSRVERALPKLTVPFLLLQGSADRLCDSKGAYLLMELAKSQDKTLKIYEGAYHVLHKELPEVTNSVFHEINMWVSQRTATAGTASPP
# [2] = target: T1, human recombinant Monoacylglycerol Lipase; assay: MAGL inactivation (kinact/KI from enzyme progress curves, T=0 min protocol); conditions: from plot of Kobs vs. compound concentration, geometric mean of 2-5 determinations (b: ≥6)
# [3] = MAGL (T = 30 min) IC50, substrate 7-HCA added after 30 minute incubation (T=30 min), geometric mean of 2-5 determinations unless otherwise indicated
# [4] = substrate 7-HCA added immediately (T=0 min), geometric mean of 2-5 determinations unless otherwise indicated, read-out: MAGL (T = 0 min) IC50
# [5] = MAGL (T=30 min) IC50, 30 minute incubation of compound with MAGL enzyme before addition of 7-HCA substrate
# [6] = read-out: MAGL (T=30 min) IC50, 30 minute incubation of compound with MAGL enzyme before addition of 7-HCA substrate
Structure (SMILES),"IC50 [1, 3] [nM]","IC50 [1, 4] [nM]","IC50 [1, 6] [nM]",other results
"O=C(O[C@H](CO)C(F)(F)F)N1CCC2(CC1)CC(n1cc(C3CC3)cn1)CO2 (mixture of isomers) [Example 23, (2R)-1,1,1-trifluoro-3-hydroxypropan-2-yl 3-(4-cyclopropyl-1H-pyrazol-1-yl)-1-oxa-8-azaspiro[4.5]decane-8-carboxylate, mixture of diastereomers]",9,68,–,MAGL kinact/KI [2]: 9650 1/s per M
"O=C(O[C@H](CO)C(F)(F)F)N1CCC2(CC1)CC(Cn1cc(C(F)(F)F)cn1)CO2 (single isomer, unassigned) [Example 3]",7,47,–,MAGL kinact/KI [2]: 10300 1/s per M
"O=C(O[C@H](CO)C(F)(F)F)N1CCC2(CC1)CC(Cn1cc(C(F)(F)F)cn1)CO2 (single isomer, unassigned) [Example 4]",8,65,–,MAGL kinact/KI [2]: 4710 1/s per M
"O=C(O[C@H](CO)C(F)(F)F)N1CCC2(CC1)CC(n1cc(C(F)(F)F)cn1)CO2 (single isomer, unassigned) [Example 8]",16,172,–,MAGL kinact/KI [2]: 2880 1/s per M
"O=C(O[C@H](CO)C(F)(F)F)N1CCC2(CC1)CC(n1cc(C(F)(F)F)cn1)CO2 (single isomer, unassigned) [Example 9]",3,16,–,MAGL kinact/KI [2]: 32800 1/s per M
"O=C(O[C@H](CO)C(F)(F)F)N1CCC2(CC1)CC(c1cccc(C(F)(F)F)n1)CO2 (single isomer, unassigned) [Example 14]",1,5,–,MAGL kinact/KI [2]: 124000^b 1/s per M
"O=C(O[C@H](CO)C(F)(F)F)N1CCC2(CC1)CC(c1cccc(C(F)(F)F)n1)CO2 (single isomer, unassigned) [Example 15]",7,67,–,MAGL kinact/KI [2]: 8230 1/s per M
"O=C(O[C@H](CO)C(F)(F)F)N1CCC2(CC1)CC(c1ccc(F)cn1)CO2 (single isomer, unassigned) [Example 16]",9,92,–,MAGL kinact/KI [2]: 5010^b 1/s per M
"O=C(O[C@H](CO)C(F)(F)F)N1CCC2(CC1)CC(c1ccc(F)cn1)CO2 (single isomer, unassigned) [Example 17]",26,297,–,MAGL kinact/KI [2]: 1390^b 1/s per M
"O=C(O[C@H](CO)C(F)(F)F)N1CCC2(CC1)CC(n1cc(C(F)F)cn1)CO2 (single isomer, unassigned) [Example 20]",11,107,–,MAGL kinact/KI [2]: 7170 1/s per M
"CC(C)(C)c1cnn(C2COC3(CCN(C(=O)O[C@H](CO)C(F)(F)F)CC3)C2)c1 (single isomer, unassigned) [Example 21]",2,9,–,MAGL kinact/KI [2]: 24400 1/s per M
"CN(C1CCOC2(CCN(C(=O)O[C@H](CO)C(F)(F)F)CC2)C1)S(=O)(=O)CC1CC1 (single isomer, unassigned) [Example 50]",67,752,–,–
"O=C(O[C@H](CO)C(F)(F)F)N1CCC2(CC1)CC(n1cc(C(F)F)cn1)CO2 (single isomer, unassigned) [diastereomer of Example 20]",–,–,–,"IC50 [1, 5]: 65 nM"
"CC(C)(C)c1cnn(C2COC3(CCN(C(=O)OC(CO)C(F)(F)F)CC3)C2)c1 (single isomer, unassigned) [diastereomer of Example 21]",–,–,7,–
"O=C(OC(CO)C(F)(F)F)N1CCC2(CC1)CC(n1cc(Cl)cn1)CO2 (single isomer, unassigned) [diastereomer of Example 22]",–,–,23,–
"Cc1cnn(C2COC3(CCN(C(=O)O[C@H](CO)C(F)(F)F)CC3)C2)c1 (single isomer, unassigned) [diastereomer of Example 24]",–,–,60,–
"N#Cc1cc(C2COC3(CCN(C(=O)OC(CO)C(F)(F)F)CC3)C2)ccc1F (single isomer, unassigned) [diastereomer of Example 28]",–,–,14,–
"N#Cc1ccc(C2COC3(CCN(C(=O)O[C@H](CO)C(F)(F)F)CC3)C2)cc1 (single isomer, unassigned) [diastereomer of Example 31]",–,–,23,–
"O=C(O[C@H](CO)C(F)(F)F)N1CCC2(CC1)CC(c1c(F)cccc1F)CO2 (single isomer, unassigned) [diastereomer of Example 32]",–,–,–,"IC50 [1, 5]: 1 nM"
"O=C(OC(CO)C(F)(F)F)N1CCC2(CC1)CC(c1ccc(F)cc1F)CO2 (single isomer, unassigned) [diastereomer of Example 33]",–,–,2,–
"O=C(OC(CO)C(F)(F)F)N1CCC2(CC1)CC(c1ccc(F)cc1)CO2 (single isomer, unassigned) [diastereomer of Example 34]",–,–,1,–

Structure (SMILES),"IC50 [1, 3] [nM]","IC50 [1, 4] [nM]","IC50 [1, 6] [nM]",other results
"O=C(OC(CO)C(F)(F)F)N1CCC2(CC1)CC(c1cc(C(F)F)ccn1)CO2 (single isomer, unassigned) [diastereomer of Example 35]",–,–,19,–
"N#Cc1ccc(C2COC3(CCN(C(=O)OC(CO)C(F)(F)F)CC3)C2)nc1 (single isomer, unassigned) [diastereomer of Example 38]",–,–,336,–
"O=C(O[C@H](CO)C(F)(F)F)N1CCC2(CC1)CC(c1ccc(C(F)F)cn1)CO2 (single isomer, unassigned) [diastereomer of Example 39]",–,–,31,–
"O=C(OC(CO)C(F)(F)F)N1CCC2(CC1)CC(c1ccc(C(F)(F)F)cn1)CO2 (single isomer, unassigned) [diastereomer of Example 40]",–,–,9,–
"O=C(OC(CO)C(F)(F)F)N1CCC2(CC1)CC(c1ccccn1)CO2 (single isomer, unassigned) [diastereomer of Example 41]",–,–,20,–
"CN(C1CCOC2(CCN(C(=O)OC(CO)C(F)(F)F)CC2)C1)S(=O)(=O)CC1CC1 (single isomer, unassigned) [diastereomer of Example 50]",–,–,284,–
"CC(C)(C)c1ccn(C2COC3(CCN(C(=O)OC(CO)C(F)(F)F)CC3)C2)n1 (single isomer, unassigned) [diastereomer of Example 52]",–,–,4,–
"O=C(OC(CO)C(F)(F)F)N1CCC2(CC1)CC(n1ccc(C(F)(F)F)n1)CO2 (single isomer, unassigned) [diastereomer of Example 53]",–,–,9,–
"Cc1cn(C2COC3(CCN(C(=O)OC(CO)C(F)(F)F)CC3)C2)nc1C (single isomer, unassigned) [diastereomer of Example 54]",–,–,20,–
"O=C(O[C@H](CO)C(F)(F)F)N1CCC2(CC1)CC(n1ncc3ccccc31)CO2 (single isomer, unassigned) [diastereomer of Example 62]",–,–,49,–
"O=C(OC(CO)C(F)(F)F)N1CCC2(CCC(n3cc(C(F)(F)F)cn3)CO2)CC1 (single isomer, unassigned) [diastereomer of Example 69]",–,–,3,–
"O=C(OC(CO)C(F)(F)F)N1CCC2(CCC(n3cc(F)cn3)CO2)CC1 (single isomer, unassigned) [diastereomer of Example 70]",–,–,14,–
"N#Cc1cccc(C2COC3(CCN(C(=O)O[C@H](CO)C(F)(F)F)CC3)C2)c1F (single isomer, unassigned) [diastereomer of Example 71]",–,–,–,"IC50 [1, 5]: 8 nM"
"N#Cc1ccc(C2COC3(CCN(C(=O)O[C@H](CO)C(F)(F)F)CC3)C2)c(F)c1 (single isomer, unassigned) [diastereomer of Example 72]",–,–,–,"IC50 [1, 5]: 12 nM"
"N#Cc1cccc(C2CCOC3(CCN(C(=O)OC(CO)C(F)(F)F)CC3)C2)c1 (single isomer, unassigned) [diastereomer of Example 73]",–,–,74,–
"O=C(OC(CO)C(F)(F)F)N1CCC2(CCC(c3ccc(F)cn3)CO2)CC1 (single isomer, unassigned) [diastereomer of Example 74]",–,–,15,–
"O=C(OC(CO)C(F)(F)F)N1CCC2(CCC(n3cc(C(F)F)cn3)CO2)CC1 (single isomer, unassigned) [diastereomer of Example 75]",–,–,3,–
"O=C(O[C@H](CO)C(F)(F)F)N1CCC2(CC1)C[C@H](n1cc(F)cn1)CO2 [Example 10, (2R)-1,1,1-Trifluoro-3-hydroxypropan-2-yl (3S)-3-(4-fluoro-1H-pyrazol-1-yl)-1-oxa-8-azaspiro[4.5]decane-8-carboxylate]",49,563,–,–
"O=C(O[C@H](CO)C(F)(F)F)N1CCC2(CC1)C[C@@H](n1cc(F)cn1)CO2 [Example 11, (2R)-1,1,1-Trifluoro-3-hydroxypropan-2-yl (3R)-3-(4-fluoro-1H-pyrazol-1-yl)-1-oxa-8-azaspiro[4.5]decane-8-carboxylate]",15,211,–,–
"O=C(O[C@H](CO)C(F)(F)F)N1CCC2(CC1)CC(Oc1ccc(C(F)F)nc1)C2 [Example 19, (2R)-1,1,1-Trifluoro-3-hydroxypropan-2-yl 2-{[6-(difluoromethyl)pyridin-3-yl]oxy}-7-azaspiro[3.5]nonane-7-carboxylate]",1,8,–,–
"N#Cc1ccc([C@@H]2COC3(CCN(C(=O)O[C@H](CO)C(F)(F)F)CC3)C2)cc1F [diastereomer of Example 27, (2R)-1,1,1-trifluoro-3-hydroxypropan-2-yl (3R)-3-(4-cyano-3-fluorophenyl)-1-oxa-8-azaspiro[4.5]decane-8-carboxylate]",–,–,–,"IC50 [1, 5]: 17 nM"
